According to ChEMBL document CHEMBL4507295 (2021):

What was measured:
[1] = target: Serine/threonine-protein kinase NIM1 (Homo sapiens) (UniProt Q8IY84); conditions: Compound concentration 1000.0 nM
[2] = target: Activin receptor type-1B (Homo sapiens) (UniProt P36896); conditions: Compound concentration 1000.0 nM
[3] = target: AP2-associated protein kinase 1 (Homo sapiens) (UniProt Q2M2I8); conditions: Compound concentration 1000.0 nM
[4] = target: Mitogen-activated protein kinase kinase kinase 20 (Homo sapiens) (UniProt Q9NYL2); conditions: Compound concentration 1000.0 nM
[5] = target: 5'-AMP-activated protein kinase catalytic subunit alpha-1 (Homo sapiens) (UniProt Q13131); conditions: Compound concentration 1000.0 nM
[6] = target: Platelet-derived growth factor receptor beta (Homo sapiens) (UniProt P09619); conditions: Compound concentration 1000.0 nM
[7] = target: Cyclin-dependent kinase-like 3 (Homo sapiens) (UniProt Q8IVW4); conditions: Compound concentration 1000.0 nM
[8] = target: MAP kinase-interacting serine/threonine-protein kinase 2 (Homo sapiens) (UniProt Q9HBH9); conditions: Compound concentration 1000.0 nM
[9] = target: Cyclin-dependent kinase 2 homolog (Plasmodium falciparum (isolate 3D7)) (UniProt P61075); conditions: Compound concentration 1000.0 nM
[10] = target: Fibroblast growth factor receptor 2 (Homo sapiens) (UniProt P21802); conditions: Compound concentration 1000.0 nM
[11] = target: Macrophage colony-stimulating factor 1 receptor (Homo sapiens) (UniProt P07333); conditions: Compound concentration 1000.0 nM
[12] = target: 3-phosphoinositide-dependent protein kinase 1 (Homo sapiens) (UniProt O15530); conditions: Compound concentration 1000.0 nM
[13] = target: Uncharacterized serine/threonine-protein kinase SBK3 (Homo sapiens) (UniProt P0C264); conditions: Compound concentration 1000.0 nM
[14] = target: Serine/threonine-protein kinase 32A (Homo sapiens) (UniProt Q8WU08); conditions: Compound concentration 1000.0 nM
[15] = target: Serine/threonine-protein kinase Nek5 (Homo sapiens) (UniProt Q6P3R8); conditions: Compound concentration 1000.0 nM
[16] = test system: Phosphatidylinositol 4,5-bisphosphate 3-kinase catalytic subunit alpha isoform (Homo sapiens), P42336 [I800L]; conditions: Compound concentration 1000.0 nM
[17] = target: Cyclin-G-associated kinase (Homo sapiens) (UniProt O14976); conditions: Compound concentration 1000.0 nM
[18] = target: Cyclin-dependent kinase 7 (Homo sapiens) (UniProt P50613); conditions: Compound concentration 1000.0 nM
[19] = target: T1, 5-hydroxytryptamine receptor 1A (Homo sapiens) (UniProt P08908); conditions: Compound concentration 10.0 uM
T1 sequence (whole entry): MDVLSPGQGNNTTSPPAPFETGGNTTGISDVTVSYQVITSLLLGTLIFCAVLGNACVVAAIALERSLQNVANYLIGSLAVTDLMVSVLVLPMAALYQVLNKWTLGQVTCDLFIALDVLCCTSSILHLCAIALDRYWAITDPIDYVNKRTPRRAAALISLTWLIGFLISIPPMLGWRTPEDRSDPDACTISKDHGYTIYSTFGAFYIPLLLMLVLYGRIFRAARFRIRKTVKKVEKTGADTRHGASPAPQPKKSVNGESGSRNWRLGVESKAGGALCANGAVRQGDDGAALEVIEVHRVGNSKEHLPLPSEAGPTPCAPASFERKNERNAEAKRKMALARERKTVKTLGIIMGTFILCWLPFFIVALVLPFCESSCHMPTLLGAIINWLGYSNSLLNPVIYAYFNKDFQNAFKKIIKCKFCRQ

[20] = target: Serine/threonine-protein kinase PLK1 (Homo sapiens) (UniProt P53350); conditions: Compound concentration 1000.0 nM
[21] = test system: Mast/stem cell growth factor receptor Kit (Homo sapiens), P10721 [D816V]; conditions: Compound concentration 1000.0 nM
[22] = target: Tyrosine-protein kinase ABL1 (Homo sapiens) (UniProt P00519); conditions: Compound concentration 1000.0 nM
[23] = target: Mitogen-activated protein kinase kinase kinase 5 (Homo sapiens) (UniProt Q99683); conditions: Compound concentration 1000.0 nM
[24] = test system: Receptor-type tyrosine-protein kinase FLT3 (Homo sapiens), P36888 [D835V]; conditions: Compound concentration 1000.0 nM
[25] = target: Mitogen-activated protein kinase 12 (Homo sapiens) (UniProt P53778); conditions: Compound concentration 1000.0 nM
[26] = target: Serine/threonine-protein kinase D1 (Homo sapiens) (UniProt Q15139); conditions: Compound concentration 1000.0 nM
[27] = target: Myosin-IIIa (Homo sapiens) (UniProt Q8NEV4); conditions: Compound concentration 1000.0 nM
[28] = target: Serine/threonine-protein kinase SBK1 (Homo sapiens) (UniProt Q52WX2); conditions: Compound concentration 1000.0 nM
[29] = target: Casein kinase I isoform gamma-3 (Homo sapiens) (UniProt Q9Y6M4); conditions: Compound concentration 1000.0 nM
[30] = target: Bone morphogenetic protein receptor type-2 (Homo sapiens) (UniProt Q13873); conditions: Compound concentration 1000.0 nM
[31] = target: Cyclin-dependent kinase 4 (Homo sapiens) (UniProt P11802); conditions: Compound concentration 1000.0 nM
[32] = target: Beta-3 adrenergic receptor (Homo sapiens) (UniProt P13945); conditions: Compound concentration 10.0 uM
[33] = target: Serine/threonine-protein kinase 33 (Homo sapiens) (UniProt Q9BYT3); conditions: Compound concentration 1000.0 nM
[34] = target: Calcium/calmodulin-dependent protein kinase type II subunit beta (Homo sapiens) (UniProt Q13554); conditions: Compound concentration 1000.0 nM
[35] = target: Serine/threonine-protein kinase PLK4 (Homo sapiens) (UniProt O00444); conditions: Compound concentration 1000.0 nM
[36] = test system: Epidermal growth factor receptor (Homo sapiens), P00533 [UNDEFINED MUTATION]; conditions: Compound concentration 1000.0 nM
[37] = test system: Receptor-type tyrosine-protein kinase FLT3 (Homo sapiens), P36888 [UNDEFINED MUTATION]; conditions: Compound concentration 1000.0 nM
[38] = target: Phosphatidylinositol 5-phosphate 4-kinase type-2 beta (Homo sapiens) (UniProt P78356); conditions: Compound concentration 1000.0 nM
[39] = target: Mitogen-activated protein kinase kinase kinase kinase 3 (Homo sapiens) (UniProt Q8IVH8); conditions: Compound concentration 1000.0 nM

Serine/threonine-protein kinase Nek5 (Homo sapiens), sequence (Q6P3R8 whole entry, canonical isoform): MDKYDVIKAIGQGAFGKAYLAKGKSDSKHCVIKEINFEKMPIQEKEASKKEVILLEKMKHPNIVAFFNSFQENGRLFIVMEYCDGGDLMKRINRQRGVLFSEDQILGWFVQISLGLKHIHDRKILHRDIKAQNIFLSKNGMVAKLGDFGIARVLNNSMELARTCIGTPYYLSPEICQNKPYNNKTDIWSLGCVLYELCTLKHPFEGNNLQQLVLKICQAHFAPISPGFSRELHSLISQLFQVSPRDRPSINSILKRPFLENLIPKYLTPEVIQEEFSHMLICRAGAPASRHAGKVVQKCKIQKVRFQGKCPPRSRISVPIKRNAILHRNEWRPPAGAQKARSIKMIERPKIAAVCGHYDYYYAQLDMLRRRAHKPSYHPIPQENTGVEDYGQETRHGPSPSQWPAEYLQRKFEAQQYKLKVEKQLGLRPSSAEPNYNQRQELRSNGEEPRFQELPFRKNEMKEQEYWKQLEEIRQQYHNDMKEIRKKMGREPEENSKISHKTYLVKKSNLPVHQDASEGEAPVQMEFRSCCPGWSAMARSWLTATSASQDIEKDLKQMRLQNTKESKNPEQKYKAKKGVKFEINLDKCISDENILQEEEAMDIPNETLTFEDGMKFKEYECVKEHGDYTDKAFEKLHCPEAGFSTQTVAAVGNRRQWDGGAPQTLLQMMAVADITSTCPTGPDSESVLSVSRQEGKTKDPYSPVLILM
Serine/threonine-protein kinase 33 (Homo sapiens), sequence (Q9BYT3 whole entry, looked up): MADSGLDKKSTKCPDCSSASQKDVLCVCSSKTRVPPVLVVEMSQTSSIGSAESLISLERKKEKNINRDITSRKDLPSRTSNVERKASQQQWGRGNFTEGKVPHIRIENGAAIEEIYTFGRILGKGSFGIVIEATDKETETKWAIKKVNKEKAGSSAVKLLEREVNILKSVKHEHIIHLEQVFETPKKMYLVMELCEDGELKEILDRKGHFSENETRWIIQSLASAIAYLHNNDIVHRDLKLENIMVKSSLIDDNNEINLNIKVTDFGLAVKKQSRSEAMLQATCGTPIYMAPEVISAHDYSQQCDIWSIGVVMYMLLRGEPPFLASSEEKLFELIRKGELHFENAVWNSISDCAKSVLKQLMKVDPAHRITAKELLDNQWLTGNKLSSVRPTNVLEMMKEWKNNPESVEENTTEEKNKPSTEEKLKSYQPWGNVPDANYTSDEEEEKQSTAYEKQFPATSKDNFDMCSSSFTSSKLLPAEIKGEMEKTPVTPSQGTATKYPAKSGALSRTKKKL
Mitogen-activated protein kinase kinase kinase 20 (Homo sapiens), sequence (Q9NYL2 2-800 limits assumed): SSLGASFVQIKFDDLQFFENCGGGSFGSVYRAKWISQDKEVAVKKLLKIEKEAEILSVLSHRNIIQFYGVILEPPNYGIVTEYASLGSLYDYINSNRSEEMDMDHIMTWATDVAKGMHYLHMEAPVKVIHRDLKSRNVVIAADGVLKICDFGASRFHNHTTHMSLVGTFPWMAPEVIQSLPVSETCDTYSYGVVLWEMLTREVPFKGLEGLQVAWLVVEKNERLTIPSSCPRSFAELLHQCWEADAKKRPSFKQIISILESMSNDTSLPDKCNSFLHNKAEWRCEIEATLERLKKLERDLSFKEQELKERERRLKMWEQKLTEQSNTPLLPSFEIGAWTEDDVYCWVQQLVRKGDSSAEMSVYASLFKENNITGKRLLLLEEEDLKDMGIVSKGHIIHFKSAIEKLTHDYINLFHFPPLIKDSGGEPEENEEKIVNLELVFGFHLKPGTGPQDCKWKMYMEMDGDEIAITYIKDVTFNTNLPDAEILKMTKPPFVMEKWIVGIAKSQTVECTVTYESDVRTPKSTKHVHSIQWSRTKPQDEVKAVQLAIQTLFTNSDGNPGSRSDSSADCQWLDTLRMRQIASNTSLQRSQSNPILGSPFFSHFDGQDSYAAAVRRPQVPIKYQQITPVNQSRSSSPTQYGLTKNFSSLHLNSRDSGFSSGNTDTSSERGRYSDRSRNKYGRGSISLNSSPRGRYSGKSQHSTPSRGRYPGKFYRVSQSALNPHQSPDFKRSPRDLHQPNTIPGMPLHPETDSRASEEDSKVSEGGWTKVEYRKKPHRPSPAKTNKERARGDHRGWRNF
Calcium/calmodulin-dependent protein kinase type II subunit beta (Homo sapiens), sequence (Q13554 whole entry): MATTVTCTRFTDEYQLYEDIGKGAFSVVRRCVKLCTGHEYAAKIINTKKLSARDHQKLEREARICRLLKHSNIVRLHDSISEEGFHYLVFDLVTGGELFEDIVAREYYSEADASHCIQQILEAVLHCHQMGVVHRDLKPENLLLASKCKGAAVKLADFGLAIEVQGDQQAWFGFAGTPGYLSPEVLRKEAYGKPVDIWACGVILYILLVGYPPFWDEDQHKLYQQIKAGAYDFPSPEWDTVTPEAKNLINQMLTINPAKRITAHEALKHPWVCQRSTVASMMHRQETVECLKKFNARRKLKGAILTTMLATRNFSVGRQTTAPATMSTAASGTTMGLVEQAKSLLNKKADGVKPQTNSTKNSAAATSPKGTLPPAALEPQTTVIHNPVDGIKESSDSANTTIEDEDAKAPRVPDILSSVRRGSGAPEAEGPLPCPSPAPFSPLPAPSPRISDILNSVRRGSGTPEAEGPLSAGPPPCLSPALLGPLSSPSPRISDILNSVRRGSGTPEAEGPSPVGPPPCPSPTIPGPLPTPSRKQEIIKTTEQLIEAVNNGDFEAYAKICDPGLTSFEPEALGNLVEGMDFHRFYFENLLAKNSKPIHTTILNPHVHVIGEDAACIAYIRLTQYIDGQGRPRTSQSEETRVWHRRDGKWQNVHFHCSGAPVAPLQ
Serine/threonine-protein kinase NIM1 (Homo sapiens), sequence (Q8IY84 whole entry): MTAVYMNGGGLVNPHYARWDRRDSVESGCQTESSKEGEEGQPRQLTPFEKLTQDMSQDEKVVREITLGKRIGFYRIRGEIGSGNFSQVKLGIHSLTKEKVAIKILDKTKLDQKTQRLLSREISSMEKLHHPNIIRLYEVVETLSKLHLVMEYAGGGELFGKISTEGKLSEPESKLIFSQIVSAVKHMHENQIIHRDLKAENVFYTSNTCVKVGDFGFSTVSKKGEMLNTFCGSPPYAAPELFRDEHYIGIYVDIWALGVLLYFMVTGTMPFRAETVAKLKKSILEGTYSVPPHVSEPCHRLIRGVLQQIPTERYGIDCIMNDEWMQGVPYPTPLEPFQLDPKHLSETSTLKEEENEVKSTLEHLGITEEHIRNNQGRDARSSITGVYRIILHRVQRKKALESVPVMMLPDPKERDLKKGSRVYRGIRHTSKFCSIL
Mitogen-activated protein kinase 12 (Homo sapiens), sequence (P53778 whole entry): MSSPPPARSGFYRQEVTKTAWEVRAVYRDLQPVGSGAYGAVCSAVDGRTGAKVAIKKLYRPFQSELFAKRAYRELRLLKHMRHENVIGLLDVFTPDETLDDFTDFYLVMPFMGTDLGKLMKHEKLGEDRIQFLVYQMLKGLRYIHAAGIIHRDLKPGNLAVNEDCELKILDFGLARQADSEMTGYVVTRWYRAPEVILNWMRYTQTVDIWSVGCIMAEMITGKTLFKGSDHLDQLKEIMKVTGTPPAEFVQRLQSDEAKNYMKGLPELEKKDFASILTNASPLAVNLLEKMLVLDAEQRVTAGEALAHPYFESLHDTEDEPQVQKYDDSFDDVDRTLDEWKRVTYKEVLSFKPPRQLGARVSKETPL
Epidermal growth factor receptor (Homo sapiens), P00533 [UNDEFINED MUTATION], sequence (P00533 whole entry, looked up, change not shown): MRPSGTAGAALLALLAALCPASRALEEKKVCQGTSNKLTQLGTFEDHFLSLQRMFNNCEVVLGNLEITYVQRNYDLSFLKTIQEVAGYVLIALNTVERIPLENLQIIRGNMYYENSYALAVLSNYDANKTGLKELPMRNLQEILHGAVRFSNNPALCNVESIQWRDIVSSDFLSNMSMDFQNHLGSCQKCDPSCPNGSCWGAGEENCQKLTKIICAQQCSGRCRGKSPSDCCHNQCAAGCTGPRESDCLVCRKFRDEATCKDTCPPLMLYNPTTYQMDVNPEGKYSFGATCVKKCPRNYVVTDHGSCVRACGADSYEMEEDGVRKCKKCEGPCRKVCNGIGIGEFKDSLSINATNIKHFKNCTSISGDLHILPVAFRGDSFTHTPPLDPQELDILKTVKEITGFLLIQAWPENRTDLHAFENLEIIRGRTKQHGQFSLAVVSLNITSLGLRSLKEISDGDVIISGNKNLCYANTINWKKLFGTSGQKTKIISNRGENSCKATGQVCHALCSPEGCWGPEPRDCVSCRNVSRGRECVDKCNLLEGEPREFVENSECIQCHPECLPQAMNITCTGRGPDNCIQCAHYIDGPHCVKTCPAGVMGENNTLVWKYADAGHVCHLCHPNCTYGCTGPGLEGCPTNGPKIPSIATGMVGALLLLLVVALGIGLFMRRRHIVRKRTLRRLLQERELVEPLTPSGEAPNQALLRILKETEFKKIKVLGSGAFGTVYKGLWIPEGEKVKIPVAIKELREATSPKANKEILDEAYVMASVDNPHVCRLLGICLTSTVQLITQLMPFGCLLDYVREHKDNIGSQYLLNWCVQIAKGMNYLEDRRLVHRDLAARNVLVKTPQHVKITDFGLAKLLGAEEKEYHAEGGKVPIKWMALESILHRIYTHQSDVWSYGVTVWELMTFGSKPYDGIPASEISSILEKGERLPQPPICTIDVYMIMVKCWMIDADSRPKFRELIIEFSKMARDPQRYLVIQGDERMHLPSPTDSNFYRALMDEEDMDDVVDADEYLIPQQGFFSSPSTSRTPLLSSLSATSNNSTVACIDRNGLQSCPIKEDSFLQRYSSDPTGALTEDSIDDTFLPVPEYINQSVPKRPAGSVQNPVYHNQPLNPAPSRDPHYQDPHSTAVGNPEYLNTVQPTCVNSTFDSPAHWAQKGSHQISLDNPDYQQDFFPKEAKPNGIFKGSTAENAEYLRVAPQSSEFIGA
Cyclin-dependent kinase 4 (Homo sapiens), sequence (P11802 whole entry): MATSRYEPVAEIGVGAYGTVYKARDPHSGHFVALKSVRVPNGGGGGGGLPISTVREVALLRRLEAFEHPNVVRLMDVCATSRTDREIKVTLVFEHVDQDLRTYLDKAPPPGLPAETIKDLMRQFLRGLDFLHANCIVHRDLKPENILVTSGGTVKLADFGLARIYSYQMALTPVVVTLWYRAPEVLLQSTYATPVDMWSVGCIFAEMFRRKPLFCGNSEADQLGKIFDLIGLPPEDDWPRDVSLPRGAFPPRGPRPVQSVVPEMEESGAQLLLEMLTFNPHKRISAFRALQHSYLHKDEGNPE

N#CC1(c2ccccn2)CCN(Cc2cc(C(=O)N3CCCC3)c(=O)n3ccccc23)CC1
inactive: residual activity [1] 95% | residual activity [2] 69% | residual activity [3] 100% | residual activity [4] 95% | residual activity [5] 100% | residual activity [6] 86% | residual activity [7] 78% | residual activity [8] 96% | residual activity [9] 100% | residual activity [10] 91% | residual activity [11] 86% | residual activity [12] 81% | residual activity [13] 100% | residual activity [14] 98% | residual activity [15] 82% | residual activity [16] 72% | residual activity [17] 100% | residual activity [18] 82% | inhibition [19] 26.7% | residual activity [20] 100% | residual activity [21] 100% | residual activity [22] 89% | residual activity [23] 80% | residual activity [24] 98% | residual activity [25] 100% | residual activity [26] 95% | residual activity [27] 80% | residual activity [28] 89% | residual activity [29] 76% | residual activity [30] 92% | residual activity [31] 100% | inhibition [32] 17.4% | residual activity [33] 62% | residual activity [34] 89% | residual activity [35] 87% | residual activity [36] 77% | residual activity [37] 90% | residual activity [38] 62% | residual activity [39] 81%

N#CC1(c2ccccn2)CCN(Cc2cc(C(=O)O)c(=O)n3ccccc23)CC1 [MSD-M1PAM]
inactive: residual activity [1] 69% | residual activity [2] 94% | residual activity [3] 100% | residual activity [4] 100% | residual activity [5] 100% | residual activity [6] 100% | residual activity [7] 89% | residual activity [8] 85% | residual activity [9] 68% | residual activity [10] 100% | residual activity [11] 100% | residual activity [12] 100% | residual activity [13] 72% | residual activity [14] 90% | residual activity [15] 100% | residual activity [16] 90% | residual activity [17] 100% | residual activity [18] 58% | inhibition [19] 21% | residual activity [20] 70% | residual activity [21] 100% | residual activity [22] 100% | residual activity [23] 75% | residual activity [24] 100% | residual activity [25] 78% | residual activity [26] 87% | residual activity [27] 100% | residual activity [28] 83% | residual activity [29] 93% | residual activity [30] 89% | residual activity [31] 100% | inhibition [32] -5.05% | residual activity [33] 56% | residual activity [34] 100% | residual activity [35] 90% | residual activity [36] 97% | residual activity [37] 100% | residual activity [38] 100% | residual activity [39] 80%
